# Source: patent US10610520B2, “Heterocyclic compound” (Takeda Pharmaceutical Company Limited, priority 2016, dated 2020)
# Molecular target: T1, His-hMAGL (recombinant polyhistidine tagged human MAGL protein) (Homo sapiens, UniProt Q99685)
# T1 construct: made in house; host or cells: E. coli BL21(DE3)
# T1 sequence (Q99685 1-303): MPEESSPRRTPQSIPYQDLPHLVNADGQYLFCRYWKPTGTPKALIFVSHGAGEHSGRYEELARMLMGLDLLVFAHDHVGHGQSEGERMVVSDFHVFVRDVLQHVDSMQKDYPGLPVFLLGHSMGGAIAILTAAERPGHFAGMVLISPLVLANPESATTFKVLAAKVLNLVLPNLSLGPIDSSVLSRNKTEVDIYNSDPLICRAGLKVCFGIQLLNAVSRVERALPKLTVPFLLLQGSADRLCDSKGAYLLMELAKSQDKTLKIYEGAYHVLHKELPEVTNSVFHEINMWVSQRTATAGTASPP
# Assay: Measurement of MAGL inhibitory activity (arachidonic acid production from 2-arachidonylglycerol, RapidFire-mass spectrometry)
# Format: biochemical
# Conditions: MAGL inhibitory rate, test compound 10 μM, 60 min preincubation, 2-arachidonylglycerol substrate
# In short: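 Arachidonic acid formed was quantified by online solid-phase extraction and triple-quadrupole MS in negative SRM mode against a d8 internal standard. Reaction: recombinant His-hMAGL (7.5 ng/mL, pH 7.5 Tris buffer with Triton X-100 and BSA) plus 2-AG (5 μL of 150 μM stock) for 10 min at room temperature, quenched with 2% formic acid. Percent inhibition corrected for enzyme-free background.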
row,inhibition at 10 µM [%],Structure (SMILES)
1,100,"O=C1NC2(CCN(C(=O)c3sc4cc(C(F)(F)F)ccc4c3Cl)C2)CO1 (centres unmarked) [Example 365, 7-((3-chloro-6-(trifluoromethyl)-1-benzothiophen-2-yl)carbonyl)-3-oxa-1,7-diazaspiro[4.4]nonan-2-one]"
2,100,"Cc1ccc(F)c(-c2ccc3c(Cl)c(C(=O)N4CC5(CCC(=O)N5)C4)sc3c2)c1 [Example 202, 2-((3-chloro-6-(2-fluoro-5-methylphenyl)-1-benzothiophen-2-yl)carbonyl)-2,5-diazaspiro[3.4]octan-6-one]"
3,100,"O=C1CCC2(CN(C(=O)c3sc(-c4ccc(C5(C(F)(F)F)CC5)cc4)cc3Cl)C2)N1 [Example 247, 2-((3-chloro-5-(4-(1-(trifluoromethyl)cyclopropyl)phenyl)-2-thienyl)carbonyl)-2,5-diazaspiro[3.4]octan-6-one]"
4,82,"Cc1cc(C)c(-c2ccc(C(=O)N3CC4(CCC(=O)N4)C3)cc2)c(C)c1 [Example 93, 2-((2′,4′,6′-trimethylbiphenyl-4-yl)carbonyl)-2,5-diazaspiro[3.4]octan-6-one]"
5,99,"Cc1cc(F)c(F)c2sc(C(=O)N3CCC4(COC(=O)N4)C3)c(Cl)c12 (centres unmarked) [Example 328, 7-((3-chloro-6,7-difluoro-4-methyl-1-benzothiophen-2-yl)carbonyl)-3-oxa-1,7-diazaspiro[4.4]nonan-2-one]"
6,98,"O=C1CCC2(CN(C(=O)N3CCC(Cc4ccc(C(F)(F)F)cc4Cl)CC3)C2)N1 [Example 107, 2-((4-(2-chloro-4-(trifluoromethyl)benzyl)piperidin-1-yl)carbonyl)-2,5-diazaspiro[3.4]octan-6-one]"
7,99,"O=C1CCC2(CN(C(=O)c3sc4cc(-c5cc(F)cc(F)c5)ccc4c3Cl)C2)N1 [Example 214, 2-((3-chloro-6-(3,5-difluorophenyl)-1-benzothiophen-2-yl)carbonyl)-2,5-diazaspiro[3.4]octan-6-one]"
8,101,"O=C1NC2(CO1)CN(C(=O)c1sc3cccc(Cl)c3c1Cl)C2 [Example 289, 2-((3,4-dichloro-1-benzothiophen-2-yl)carbonyl)-7-oxa-2,5-diazaspiro[3.4]octan-6-one]"
9,86,"O=C1CCC2(CN(C(=O)c3cc4cc(Br)ccc4s3)C2)N1 [Example 250, 2-((5-bromo-1-benzothiophen-2-yl)carbonyl)-2,5-diazaspiro[3.4]octan-6-one]"
10,101,"O=C1NC2(CO1)CN(C(=O)c1sc3cc(OC(F)(F)F)cc(Cl)c3c1Cl)C2 [Example 293, 2-((3,4-dichloro-6-(trifluoromethoxy)-1-benzothiophen-2-yl)carbonyl)-7-oxa-2,5-diazaspiro[3.4]octan-6-one]"
11,99,"Cc1ccc(-c2ccc3c(Cl)c(C(=O)N4CC5(CCC(=O)N5)C4)sc3c2)cn1 [Example 227, 2-((3-chloro-6-(6-methylpyridin-3-yl)-1-benzothiophen-2-yl)carbonyl)-2,5-diazaspiro[3.4]octan-6-one]"
12,101,"Cc1cc(-c2ccc3c(Cl)c(C(=O)N4CC5(CCC(=O)N5)C4)sc3c2)ccc1F [Example 210, 2-((3-chloro-6-(4-fluoro-3-methylphenyl)-1-benzothiophen-2-yl)carbonyl)-2,5-diazaspiro[3.4]octan-6-one]"
13,100,"O=C1NC2(CO1)CN(C(=O)[C@H]1C[C@@H](OCc3ccc(Cl)cc3Cl)C1)C2 [Example 349, 2-((cis-3-((2,4-dichlorobenzyl)oxy)cyclobutyl)carbonyl)-7-oxa-2,5-diazaspiro[3.4]octan-6-one]"
14,103,"O=C1CCC2(CN(C(=O)N3CCC(Cc4ccc(Cl)c(Cl)c4)CC3)C2)N1 [Example 103, 2-((4-(3,4-dichlorobenzyl)piperidin-1-yl)carbonyl)-2,5-diazaspiro[3.4]octan-6-one]"
15,103,"O=C1CCC2(CN(C(=O)c3sc4cc(-c5ccccc5F)ccc4c3Cl)C2)N1 [Example 38, 2-((3-chloro-6-(2-fluorophenyl)-1-benzothiophen-2-yl)carbonyl)-2,5-diazaspiro[3.4]octan-6-one]"
16,100,"O=C1NC2(CCN(C(=O)c3sc4cc(C(F)(F)F)c(F)cc4c3Cl)C2)CO1 (centres unmarked) [Example 343, 7-((3-chloro-5-fluoro-6-(trifluoromethyl)-1-benzothiophen-2-yl)carbonyl)-3-oxa-1,7-diazaspiro[4.4]nonan-2-one]"
17,101,"O=C1NC2(CO1)CN(C(=O)c1sc3cc(C(F)(F)F)ccc3c1Cl)C2 [Example 241, 2-((3-chloro-6-(trifluoromethyl)-1-benzothiophen-2-yl)carbonyl)-7-oxa-2,5-diazaspiro[3.4]octan-6-one]"
18,97,"O=C1CCC2(CN(C(=O)c3ccc(-c4ccc(C(F)(F)F)c(F)c4)cc3)C2)N1 [Example 45, 2-((3′-fluoro-4′-(trifluoromethyl)biphenyl-4-yl)carbonyl)-2,5-diazaspiro[3.4]octan-6-one]"

row,inhibition at 10 µM [%],Structure (SMILES)
1,101,"COc1cc(F)c2c(Cl)c(C(=O)N3CC4(COC(=O)N4)C3)sc2c1 [Example 284, 2-((3-chloro-4-fluoro-6-methoxy-1-benzothiophen-2-yl)carbonyl)-7-oxa-2,5-diazaspiro[3.4]octan-6-one]"
2,80,"O=C1CCC2(CN(C(=O)c3cc4ccc(-c5ccc(Cl)cc5)cc4o3)C2)N1 [Example 169, 2-((6-(4-chlorophenyl)-1-benzofuran-2-yl)carbonyl)-2,5-diazaspiro[3.4]octan-6-one]"
3,104,"O=C1CCC2(CN(C(=O)N3CC(COc4ccc(Br)cc4F)C3)C2)N1 [Example 16, 2-((3-((4-bromo-2-fluorophenoxy)methyl)azetidin-1-yl)carbonyl)-2,5-diazaspiro[3.4]octan-6-one]"
4,93,"O=C1CCC2(CN(C(=O)c3ccc(-c4cc(F)c(F)c(F)c4)cc3)C2)N1 [Example 68, 2-((3′,4′,5′-trifluorobiphenyl-4-yl)carbonyl)-2,5-diazaspiro[3.4]octan-6-one]"
5,97,"O=C1CCC2(CN(C(=O)c3ccc(-c4ccc(OC(F)(F)F)cc4F)cc3)C2)N1 [Example 59, 2-((2′-fluoro-4′-(trifluoromethoxy)biphenyl-4-yl)carbonyl)-2,5-diazaspiro[3.4]octan-6-one]"
6,102,"Cc1ccc(OCC2CN(C(=O)N3CC4(CCC(=O)N4)C3)C2)c(Cl)c1 [Example 21, 2-((3-((2-chloro-4-methylphenoxy)methyl)azetidin-1-yl)carbonyl)-2,5-diazaspiro[3.4]octan-6-one]"
7,94,"O=C1CCC2(CN(C(=O)c3ccc(-c4ccc5c(c4)CCO5)cc3)C2)N1 [Example 95, 2-(4-(2,3-dihydro-1-benzofuran-5-yl)benzoyl)-2,5-diazaspiro[3.4]octan-6-one]"
8,99,"O=C1COCC2(CCN(C(=O)N3CCC(COc4ccc(F)cc4Cl)CC3)C2)N1 (centres unmarked) [Example 276, 2-((4-((2-chloro-4-fluorophenoxy)methyl)piperidin-1-yl)carbonyl)-9-oxa-2,6-diazaspiro[4.5]decan-7-one]"
9,101,"O=C1NC2(CO1)CN(C(=O)c1sc3cccc(OC(F)(F)F)c3c1Cl)C2 [Example 266, 2-((3-chloro-4-(trifluoromethoxy)-1-benzothiophen-2-yl)carbonyl)-7-oxa-2,5-diazaspiro[3.4]octan-6-one]"
10,97,"O=C1CCC2(CN(C(=O)c3ccc(C(F)(F)c4ccccc4)cc3)C2)N1 [Example 28, 2-(4-(difluoro(phenyl)methyl)benzoyl)-2,5-diazaspiro[3.4]octan-6-one]"
11,98,"O=C1CCC2(CN(C(=O)[C@H]3C[C@H](COc4ccc(F)cc4Cl)C3)C2)N1 [Example 26, 2-((trans-3-((2-chloro-4-fluorophenoxy)methyl)cyclobutyl)carbonyl)-2,5-diazaspiro[3.4]octan-6-one]"
12,100,"O=C1NC2(CO1)CN(C(=O)c1sc3ccccc3c1Cl)C2 [Example 288, 2-((3-chloro-1-benzothiophen-2-yl)carbonyl)-7-oxa-2,5-diazaspiro[3.4]octan-6-one]"
13,96,"Cc1c(C(=O)N2CC3(CCC(=O)N3)C2)sc2cccc(F)c12 [Example 142, 2-((4-fluoro-3-methyl-1-benzothiophen-2-yl)carbonyl)-2,5-diazaspiro[3.4]octan-6-one]"
14,100,"O=C1NC2(CO1)CN(C(=O)c1sc3ccc(C(F)(F)F)cc3c1Cl)C2 [Example 258, 2-((3-chloro-5-(trifluoromethyl)-1-benzothiophen-2-yl)carbonyl)-7-oxa-2,5-diazaspiro[3.4]octan-6-one]"
15,101,"O=C1NC2(CO1)CN(C(=O)c1sc3ccc(OC(F)(F)F)cc3c1C(F)F)C2 [Example 300, 2-((3-(difluoromethyl)-5-(trifluoromethoxy)-1-benzothiophen-2-yl)carbonyl)-7-oxa-2,5-diazaspiro[3.4]octan-6-one]"
16,99,"O=C1CCC2(CN(C(=O)c3sc4ccc(OC(F)(F)F)cc4c3Cl)C2)N1 [Example 253, 2-((3-chloro-5-(trifluoromethoxy)-1-benzothiophen-2-yl)carbonyl)-2,5-diazaspiro[3.4]octan-6-one]"
17,88,"O=C1CCC2(CN(C(=O)c3ccc(-c4ccccc4)cc3OC(F)(F)F)C2)N1 [Example 172, 2-((3-(trifluoromethoxy)biphenyl-4-yl)carbonyl)-2,5-diazaspiro[3.4]octan-6-one]"
